# Measurements taken from article PMC5543150, “Antimalarial troponoids, puberulic acid and viticolins; divergent synthesis and structure-activity relationship studies” (Scientific Reports, 2017).
# Like-named read-outs stand apart in the source and are kept apart here.
# Legend:
# [1] = system: Plasmodium falciparum K1 (chloroquine-resistant) parasite strain; settings: natural products and simple troponoids, previously reported, cited from earlier work; for IC50 Antimalarial activity (K1 strain) / Selectivity index MRC-5/K1: Table S1; for IC50: read-out: IC50, antimalarial activity against Plasmodium falciparum K1 strain
# P. berghei = system: P. berghei; design: method as in PMID 21063422, PMID 24713875; settings: 2 mg/kg × 4, subcutaneous (s.c.), 4-day suppressive test; cited from earlier work
# [2] = system: Plasmodium falciparum K1 (chloroquine-resistant) parasite strain; assay: In vitro antimalarial assay (p-LDH, 72 h) against Plasmodium falciparum K1 strain; assay type: cell-based; settings: for IC50: Plasmodium falciparum; for fold better IC50 than those of 7 and 37: relative to 7 and 37
# Description: Briefly, the P. falciparum K1 strain was cultured in human erythrocytes in RPMI medium supplemented with 10% human plasma at 37 °C, under 93% N2, 4% CO2, and 3% O2. Asynchronous parasites (2% hematocrit and 0.5 or 1% parasitaemia) were seeded in a 96-well microtiter plate and serially diluted test compounds were added. […] After 72-hours incubation, parasite lactate dehydrogenase (p-LDH) was assayed using a slight modification of the procedure reported by Makler et al.[31] and Vivas et al.[32]. The 50% inhibitory concentration (IC50) value was calculated from a dose response curve. This study was approved by “Kitasato Institute Hospital Research Ethics Committee (No12102)” using human erythrocytes donated by volunteers.
# 3. Biological evaluation of synthesized derivatives
# 3-1. In vitro cultivation of Plasmodium falciparum and the antimalarial assay In vitro cultivation and antimalarial activity against the Plasmodium falciparum […]
# previously1). Briefly, the P. falciparum K1 strain was cultured in human erythrocytes in RPMI medium supplemented with 10% human plasma at 37 °C, under 93% N2, 4% CO2, and 3% O2. Asynchronous parasites (2% hematocrit and 0.5 or 1% parasitaemia) were seeded in a 96-well microtiter plate and serially diluted test compounds were added.
# After 72-hours incubation, parasite lactate dehydrogenase (p-LDH) was assayed using a slight modification of the procedure reported by Makler et al2) and Vivas et al3). The 50% inhibitory concentration (IC50) value was calculated from a dose response curve.
# This study was approved by “Kitasato Institute Hospital Research Ethics Committee (No12102)” using human erythrocytes donated by volunteers.
# (§1) 3-2. Cytotoxic assay against MRC-5 cells
# Measurement of cytotoxicity against human fetal lung fibroblast MRC-5 cells was carried out as described previously4).
# 1) K. Otoguro, A. Kohana, C. Manabe, A. Ishiyama, H. Ui, K. Shiomi, H. Yamada, S. […]
# 2) M. T. Makler, J. M. Ries, J. A. Williams, J. E. Bancroft, R. C. Piper, B. L. Gibbins, […]
# D. J. Hinrichs, Am. J. Med. Hyg. 1993, 48, 739-741.
# 3) L. Vivas, A. Easton, H. Kendrick, A. Cameron, J.-L. Lavandera, D. Barros, F. G. de las Heras, R. L. Brady, S. L. Croft, Exper. Parasitol. 2005, 111, 105-114.
# 4) K. Otoguro, H. Ui, A. Ishiyama, N. Arai, M. Kobayashi, Y. Takahashi, R. Masuma, K. Shiomi, H. Yamada, S. Ōmura, J. Antibiot. 2003, 56, 322-324.
# [3] = design: method as in PMID 21063422, PMID 24713875; settings: s.c. dose of 5 mg/kg × 2 (day 0 and 1), by day 3; cited from earlier work
# [4] = Cytotoxic assay against MRC-5 cells; settings: human
# Description: Measurement of cytotoxicity against human fetal lung fibroblast MRC-5 cells was carried out as described previously.
# 3. […]
# as §1
# Measurement of cytotoxicity against human fetal lung fibroblast MRC-5 cells
# was carried out as described previously4). […]
# 4) K. Otoguro, H. Ui, A. Ishiyama, N. Arai, M. Kobayashi, Y. Takahashi, R. Masuma,
# K. Shiomi, H. Yamada, S. Ōmura, J. Antibiot.
# [5] = system: human fetal lung fibroblast MRC-5 cells; design: method as in earlier work; settings: Table S1; natural products and simple troponoids, previously reported; cited from earlier work
# [6] = K1, Table S1, synthesized compounds and positive controls, read-out: IC50 Antimalarial activity (K1 strain)
# [7] = K1, synthesized derivatives, in vitro, read-out: IC50 Antimalarial activity (K1 strain)
# [8] = Table S1, synthesized compounds and positive controls
# [9] = MRC-5 cells (fetal lung fibroblasts), IC50 Cytotoxicity (MRC-5), Table S1, synthesized compounds and positive controls
# [10] = MRC-5 cells (fetal lung fibroblasts), IC50 Cytotoxicity (MRC-5), synthesized derivatives
# [11] = MRC-5 cells (fetal lung fibroblasts), IC50 cytotoxicity (MRC-5)
"IC50 [2, 6] [µg/mL]","IC50 [2, 7] [nM]",Structure (SMILES),IC50 Antimalarial activity (K1 strain) [1] [µg/mL],IC50 [1] [µM],"Selectivity index MRC-5/K1 [2, 8]","IC50 [4, 9] [µg/mL]","IC50 [4, 10] [nM]",further results
> 12.5,> 50000,CC1(C)Oc2cc(C(=O)O)cc(O)c(=O)c2O1 [Compound 24],,,,,,
> 12.5,> 50000,COc1c2c(cc(C(=O)O)cc1=O)OC(C)(C)O2 [Compound 27],,,,,,
> 12.5,> 50000,COc1cc(C(=O)O)cc2c(c1=O)OC(C)(C)O2 [Compound 28],,,,,,
0.073,340 ± 22,"COc1cc(C(=O)O)cc(O)c(=O)c1O [Compound 29, Iso-viticolin A]",,,162.33,11.8,55800,"fold stronger activity than viticolin A (3) ([2]; K1 strain, relative to viticolin A (3)): approximately 100 fold"
0.38,2090 ± 27,"COCc1ccc(O)c(=O)c(O)c1 [Compound 38, 4-Methoxymethyl-7-hydroxytropolone]",,,0.0006,0.00024,1.3,"fold better IC50 than those of 7 and 37 ([2]; K1 strain): approximately 2 fold; IC50 [4, 11]: 1.32 nM"
0.387,2120 ± 110,"O=C(O)c1ccc(O)c(=O)c(O)c1 [Compound 40, Iso-stipitatic acid]",,,47.82,18.6,102000,fold better IC50 than those of 7 and 37 ([2]; K1 strain): approximately 2 fold
0.038,210 ± 3.3,"O=c1c(O)cc(CO)cc(O)c1O [Compound 42, 4-Hydroxymethyl-6,7-dihydroxytropolone]",,,0.115,0.00435,24,melting point: 162 °C
0.044,220 ± 1.6,"COCc1cc(O)c(O)c(=O)c(O)c1 [Compound 43, 4-Methoxymethyl-6,7-dihydroxytropolone]",,,0.041,0.00181,91,melting point: 120 °C
0.096,460 ± 53,"[N-]=[N+]=NCc1cc(O)c(O)c(=O)c(O)c1 [Compound 44, 4-Azidomethyl-6,7-dihydroxytropolone]",,,,0.00073,3.5,

# Further lines, the compound ahead of its results:
Structure (SMILES),"IC50 [2, 6] [µg/mL]","IC50 [2, 7] [nM]",IC50 Antimalarial activity (K1 strain) [1] [µg/mL],IC50 [1] [µM],"Selectivity index MRC-5/K1 [2, 8]","IC50 [4, 9] [µg/mL]","IC50 [4, 10] [nM]",further results
"O=C(O)c1cc(O)c(O)c(=O)c(O)c1 [Compound 1, puberulic acid]",0.0087,44 ± 2.9,0.01,0.05,480.46,4.18,289000,"Selectivity index MRC-5/K1 [1]: 5720; in vivo efficacy, inhibition (P. berghei): 69%; toxicity in vivo, mice dying [3]: four out of five; IC50 Cytotoxicity (MRC-5) [5]: 57.20 µg/mL"
"O=C(O)c1cc(O)cc(=O)c(O)c1 [Compound 2, stipitatic acid]",,,7.07,,,,,Selectivity index MRC-5/K1 [1]: > 14; IC50 Cytotoxicity (MRC-5) [5]: > 100 µg/mL
"COc1c(O)cc(C(=O)O)cc(O)c1=O [Compound 3, viticolin A]",,,9.92,46.8,,,,Selectivity index MRC-5/K1 [1]: > 10; melting point: 227 °C; IC50 Cytotoxicity (MRC-5) [5]: > 100 µg/mL
"COc1cc(C(=O)O)cc(O)c(OC)c1=O [Compound 4, viticolin B]",,,0.84,3.71,,,,Selectivity index MRC-5/K1 [1]: 8.08; IC50 Cytotoxicity (MRC-5) [5]: 6.79 µg/mL
"O=c1cccccc1 [Compound 5, tropone, reference compound]",,,> 12.50,> 118,,,,
"O=c1cccccc1O [Compound 6, tropolone, reference compound]",,,2.74,22.4,,,,
"O=c1c(O)ccccc1O [Compound 7, 7-hydroxytropolone, reference compound]",,,0.89,6.44,,,,"Selectivity index MRC-5/K1 [1]: 0.27; fold stronger IC50 value than that of 5 ([2]; K1 strain, relative to tropone (5)): > 18 fold; IC50 Cytotoxicity (MRC-5) [5]: 0.24 µg/mL"
"CC(C)c1cccc(=O)c(O)c1 [Compound 8, hinokitiol, reference compound]",,,4.92,30,,,,Selectivity index MRC-5/K1 [1]: 1.20; IC50 Cytotoxicity (MRC-5) [5]: 5.80 µg/mL
CC1(C)Oc2cc(C=O)cc(O)c(=O)c2O1 [Compound 23],> 12.5,> 56000,,,,,,
COC(=O)c1cc2c(c(OC)c(=O)c1)OC(C)(C)O2 [Compound 25],> 12.5,> 47000,,,,,,
COC(=O)c1cc2c(c(=O)c(OC)c1)OC(C)(C)O2 [Compound 26],> 12.5,> 47000,,,,,,
"O=c1c(O)ccc(CO)cc1O [Compound 37, 4-Hydroxymethyl-7-hydroxytropolone]",0.728,4330 ± 30,,,0.0008,0.00057,3.4,"IC50 [4, 11]: 3.39 nM; melting point: 144 °C (dec.)"
"C[C@@H]1CC[C@H]2[C@@H](C)C(=O)O[C@@H]3O[C@@]4(C)CC[C@@H]1[C@]32OO4 [artemisinin, reference compound]",0.0057,,,,7.925,,,IC50 ([4]; IC50 Cytotoxicity (MRC-5)): 45.2 µg/mL
"CCN(CC)CCCC(C)Nc1ccnc2cc(Cl)ccc12 (centres unmarked) [chloroquine, reference compound]",,,,,,,,"IC50 ([2]; K1, read-out: IC50 Antimalarial activity (K1 strain)): 0.18 µg/mL; IC50 [4]: 18.6 µg/mL"
